According to ChEMBL document CHEMBL3124894, “Lactam sulfonamides as potent inhibitors of the Kv1.5 potassium ion channel” (Bioorg Med Chem Lett, 2014):
pIC50: −log10 of the molar value.

Tests used:
Oryctolagus cuniculus [1] = assay: Antiarrhythmic activity in New Zealand white rabbit assessed as unbound steady-state plasma concentration giving 20% change in atrium effective refractory period at 0.1 to 1 umol/kg/min administered as infusion; type: functional
[2] = biological target: T1, Potassium voltage-gated channel subfamily A member 5 (Homo sapiens, UniProt P22460); assay: Inhibition of human Kv1.5 ion channel expressed in CHO cells by patch clamp assay; type: cell-based
T1 sequence (P22460 whole entry): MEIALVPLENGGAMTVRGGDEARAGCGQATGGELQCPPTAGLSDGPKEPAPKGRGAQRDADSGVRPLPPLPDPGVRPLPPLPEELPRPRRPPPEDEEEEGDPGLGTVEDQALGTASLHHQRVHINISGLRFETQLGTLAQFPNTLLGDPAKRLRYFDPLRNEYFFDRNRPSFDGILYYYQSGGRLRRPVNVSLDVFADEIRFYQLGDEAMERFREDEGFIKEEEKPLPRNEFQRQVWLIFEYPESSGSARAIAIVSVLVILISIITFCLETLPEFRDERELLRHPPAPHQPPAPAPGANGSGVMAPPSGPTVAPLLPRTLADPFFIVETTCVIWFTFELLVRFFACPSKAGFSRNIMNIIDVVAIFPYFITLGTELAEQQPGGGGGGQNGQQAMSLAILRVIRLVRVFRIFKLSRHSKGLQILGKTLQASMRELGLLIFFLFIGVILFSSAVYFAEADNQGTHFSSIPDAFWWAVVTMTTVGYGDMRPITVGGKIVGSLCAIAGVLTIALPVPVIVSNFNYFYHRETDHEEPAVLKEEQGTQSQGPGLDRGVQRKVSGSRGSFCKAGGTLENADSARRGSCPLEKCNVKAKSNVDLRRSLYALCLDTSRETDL

[3] = Intrinsic clearance in human liver microsomes assessed per mg protein; type: ADME; settings: read-out: CLH
[4] = Oral bioavailability in Beagle dog at 2 umol/kg; type: ADME, organism-based, Canis lupus familiaris; settings: in vivo
[5] = Clearance in Beagle dog at 1 umol/kg, iv and 2 umol/kg, po; type: ADME, organism-based, Canis lupus familiaris; settings: in vivo
[6] = Terminal half life in Sprague-Dawley rat at 2 umol/kg, iv and 6 umol/kg, po; type: ADME, organism-based; settings: in vivo, read-out: beta t1/2 (converted)
[7] = Clearance in Sprague-Dawley rat at 2 umol/kg, iv and 6 umol/kg, po; type: ADME, organism-based; settings: in vivo
[8] = Oral bioavailability in Sprague-Dawley rat at 6 umol/kg; type: ADME, organism-based; settings: in vivo
[9] = Lipophilicity, log D of the compound by chromatography; type: physicochemical
Oryctolagus cuniculus [10] = assay: Cardiotoxicity in New Zealand white rabbit assessed as QT interval at 0.1 to 1 umol/kg/min administered as infusion; type: toxicity, organism-based; settings: in vivo, iv
[11] = Terminal half life in Beagle dog at 1 umol/kg, iv and 2 umol/kg, po; type: ADME, organism-based, Canis lupus familiaris; settings: in vivo, read-out: beta t1/2 (converted)
Oryctolagus cuniculus [12] = assay: Toxicity in New Zealand white rabbit assessed as CNS-like side effects at 0.1 to 1 umol/kg/min administered as infusion; type: organism-based; settings: in vivo, iv
[13] = biological target: T1, Potassium voltage-gated channel subfamily A member 5; assay: Inhibition of Kv1.5 ion channel (unknown origin) expressed in CHO cells by Rb(+) efflux assay; type: cell-based

Compound	pIC50 [2]	chromatographic logD [9]	other results
CN1C(=O)CC[C@H]1CN(Cc1ccc(Cl)cc1)S(=O)(=O)c1cccc(C#N)c1	6.68	3.6	Cp(f)ss (Oryctolagus cuniculus [1]): 0.35 µM; microsomal CLint [3]: 116 µL/min/mg; bioavailability [4]: 44%; clearance [5]: 31 mL/min/kg; half-life [6]: 31.8 min; clearance [7]: 45 mL/min/kg; bioavailability [8]: 45%; Time (Oryctolagus cuniculus [10]): < 10 ms; half-life [11]: 52.2 min; Activity (Oryctolagus cuniculus [12]): Non-toxic
N#Cc1cccc(S(=O)(=O)N(Cc2cccc(Cl)c2)C[C@@H]2CCC(=O)N2)c1	5.37	3	–
O=S(=O)(c1ccccc1F)N(Cc1ccccc1)Cc1ccc(F)cc1	5.32	6.2	–
O=C1CC[C@@H](CN(Cc2ccc(F)cc2)S(=O)(=O)c2ccccc2)N1	5.06	2.7	–
O=C1CC[C@@H](CN(Cc2ccc(F)cc2)S(=O)(=O)c2cc(Cl)cc(Cl)c2)N1	5.09	4.4	–
N#Cc1cccc(S(=O)(=O)N(Cc2ccc(Cl)cc2)C[C@@H]2CCC(=O)N2)c1	5.66	3.1	–
N#Cc1ccccc1S(=O)(=O)N(Cc1ccc(F)cc1)C[C@@H]1CCC(=O)N1	< 4.52	2.5	–
COc1ccc(S(=O)(=O)N[C@H]2CCCC[C@@H]2OCc2ccccc2)cc1 (racemic)	–	–	pIC50 [13]: 4.55
N#Cc1ccc(S(=O)(=O)N(Cc2ccc(F)cc2)C[C@@H]2CCC(=O)N2)cc1	< 4.52	2.6	–
CN1C(=O)CC[C@H]1CN(Cc1ccc(F)cc1)S(=O)(=O)c1cccc(C#N)c1	6.09	3.1	–
N#Cc1cccc(S(=O)(=O)N(CCc2ccc(F)cc2)C[C@@H]2CCC(=O)N2)c1	< 5.00	2.9	–
N#Cc1cccc(S(=O)(=O)N(Cc2ccc(F)cc2)C[C@@H]2CCCC(=O)N2)c1	5.12	2.9	–
CS(=O)(=O)c1cccc(S(=O)(=O)N(Cc2ccc(F)cc2)C[C@@H]2CCC(=O)N2)c1	5.06	2	–
CCN1C(=O)CC[C@H]1CN(Cc1ccc(F)cc1)S(=O)(=O)c1cccc(C#N)c1	5.55	3.5	–
N#Cc1cccc(S(=O)(=O)N(Cc2ccc(F)cc2)C[C@H]2CCC(=O)N2)c1	5.06	2.5	–
NC(=O)c1ccc(N(Cc2ccc(F)cc2)S(=O)(=O)c2ccccc2F)cc1	5.66	3.4	–
N#Cc1cccc(S(=O)(=O)N(Cc2ccccc2Cl)C[C@@H]2CCC(=O)N2)c1	< 5.00	2.7	–
O=C1CC[C@@H](CN(Cc2ccc(F)cc2)S(=O)(=O)c2cccc(F)c2)N1	5.14	3.1	–

Second part, led by results:

pIC50 [2]	chromatographic logD [9]	Compound	other results
–	4.6	COc1ccc(S(=O)(=O)N(Cc2ccccc2)[C@H]2CCCC[C@@H]2O)cc1 (racemic)	pIC50 [13]: 5.70
6.10	3.6	O=C1CC[C@@H](CN(Cc2ccc(F)cc2)S(=O)(=O)c2cccc(Cl)c2)N1	–
5.39	3	O=C1CC[C@@H](CN(Cc2ccc(F)cc2)S(=O)(=O)c2ccc(F)cc2)N1	–
5.70	3.1	COc1cccc(S(=O)(=O)N(Cc2ccc(F)cc2)C[C@@H]2CCC(=O)N2)c1	–
< 5.00	3	O=C1CC[C@@H](CN(Cc2ccc(F)cc2)S(=O)(=O)c2cccc3c2OCCO3)N1	–
5.57	2.9	N#Cc1cccc(S(=O)(=O)N(CC[C@@H]2CCC(=O)N2)Cc2ccc(F)cc2)c1	–
5.59	2.7	N#Cc1cccc(S(=O)(=O)N(Cc2ccc(F)cc2)C[C@@H]2CCC(=O)N2)c1	–
5.70	4.7	O=S(=O)(c1ccc(F)cc1)N(Cc1ccc(F)cc1)Cc1ccccn1	–
